Measured values taken from ChEMBL document CHEMBL1201862, “PubChem BioAssay data set” (2004).
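Five compound concentrations were applied to cells in 96-well plates for 48 hours; endpoints were derived by simple linear interpolation of the resulting dose-response curve. GI50 marks 50% less growth.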 Active and inactive are the calls of the source. Rule as the data show it: active = GI50 up to about 1.1 µM and inactive = higher. Where a SMILES comes first, the peptide text is derived from it. The star is where a group is joined. Boc = CC(C)(C)OC(=O)*; OSu = O=C1CCC(=O)N1O*

What was measured:
Test in all cases: inhibition of tumour cell growth, NCI panel, 48 h
786-0 = test system: 786-0
A498 = test system: A498
ACHN = test system: ACHN
BT-549 = test system: BT-549
HT-29 = test system: HT-29
K562 = test system: K562
LOX IMVI = test system: LOX IMVI
MCF7 = test system: MCF7
MDA-MB-435 = test system: MDA-MB-435
MDA-N = test system: MDA-N
NCI-H23 = test system: NCI-H23
NCI-H460 = test system: NCI-H460
OVCAR-5 = test system: OVCAR-5
SF-295 = test system: SF-295
SK-MEL-2 = test system: SK-MEL-2
SNB-75 = test system: SNB-75
T47D = test system: T47D
TK-10 = test system: TK-10
UACC-257 = test system: UACC-257
SR = test system: SR

CCCCOC(=O)C1CN2C=CC=NC2=NC1(C(F)(F)F)C(F)(F)F (stereo unspecified)
GI50 (786-0): > 100 µM (inactive)
GI50 (A498): > 100 µM (inactive)
GI50 (ACHN): > 100 µM (inactive)
GI50 (BT-549): > 100 µM (inactive)
GI50 (HT-29): > 100 µM (inactive)
GI50 (K562): > 100 µM (inactive)
GI50 (LOX IMVI): > 100 µM (inactive)
GI50 (MCF7): > 100 µM (inactive)
GI50 (MDA-MB-435): > 100 µM (inactive)
GI50 (MDA-N): > 100 µM (inactive)
GI50 (NCI-H23): > 100 µM (inactive)
GI50 (NCI-H460): > 100 µM (inactive)
GI50 (OVCAR-5): > 100 µM (inactive)
GI50 (SF-295): > 100 µM (inactive)
GI50 (SK-MEL-2): > 100 µM (inactive)
GI50 (SNB-75): > 100 µM (inactive)
GI50 (T47D): > 100 µM (inactive)
GI50 (TK-10): > 100 µM (inactive)
GI50 (UACC-257): > 100 µM (inactive)

CC(C)(C)OC(=O)NC(Cc1ccc(O)cc1)C(=O)NC(CCCCN)C(=O)NC(Cc1ccc(O)cc1)C(=O)NC(CCCCN)C(=O)ON1C(=O)CCC1=O (stereo unspecified) (Boc-YKYK-OSu; configuration not given here)
GI50 (786-0): > 100 µM (inactive)
GI50 (A498): > 100 µM (inactive)
GI50 (ACHN): > 100 µM (inactive)
GI50 (BT-549): > 100 µM (inactive)
GI50 (HT-29): 89.3 µM (inactive)
GI50 (K562): > 100 µM (inactive)
GI50 (MCF7): > 100 µM (inactive)
GI50 (MDA-N): > 100 µM (inactive)
GI50 (NCI-H23): > 100 µM (inactive)
GI50 (NCI-H460): > 100 µM (inactive)
GI50 (OVCAR-5): > 100 µM (inactive)
GI50 (SK-MEL-2): > 100 µM (inactive)
GI50 (SNB-75): > 100 µM (inactive)
GI50 (SR): > 100 µM (inactive)
GI50 (T47D): > 100 µM (inactive)
GI50 (TK-10): > 100 µM (inactive)
GI50 (UACC-257): > 100 µM (inactive)

O=C1c2ccccc2/C(=N\c2ccc3ccccc3c2)C1(C1=C(c2ccccc2)/C(=N/c2ccc3ccccc3c2)c2ccccc21)c1ccccc1 (stereo unspecified)
GI50 (786-0): 4.8 µM (inactive)
GI50 (A498): > 10 µM (inactive)
GI50 (ACHN): 2.53 µM (inactive)
GI50 (BT-549): 5.62 µM (inactive)
GI50 (HT-29): 3.48 µM (inactive)
GI50 (K562): 4.22 µM (inactive)
GI50 (LOX IMVI): 4.01 µM (inactive)
GI50 (MCF7): 4.05 µM (inactive)
GI50 (MDA-MB-435): 3.33 µM (inactive)
GI50 (MDA-N): 3.89 µM (inactive)
GI50 (NCI-H23): 4.09 µM (inactive)
GI50 (NCI-H460): 3.32 µM (inactive)
GI50 (OVCAR-5): > 57.8 µM (inactive)
GI50 (SF-295): 10.9 µM (inactive)
GI50 (SK-MEL-2): 11.9 µM (inactive)
GI50 (SNB-75): 7.67 µM (inactive)
GI50 (T47D): 5.5 µM (inactive)
GI50 (TK-10): 45.5 µM (inactive)
GI50 (UACC-257): 5.73 µM (inactive)

O=C1C(Cl)=C(NCCN2CCOCC2)C(=O)c2c(O)ccc(O)c21
GI50 (786-0): 2.01 µM (inactive)
GI50 (A498): 6.62 µM (inactive)
GI50 (ACHN): 2.7 µM (inactive)
GI50 (BT-549): 2.24 µM (inactive)
GI50 (HT-29): 2.03 µM (inactive)
GI50 (K562): 2.06 µM (inactive)
GI50 (LOX IMVI): 1.33 µM (inactive)
GI50 (MCF7): 1.42 µM (inactive)
GI50 (MDA-MB-435): 1.64 µM (inactive)
GI50 (MDA-N): 1.9 µM (inactive)
GI50 (NCI-H23): 1 µM (active)
GI50 (NCI-H460): 1.58 µM (inactive)
GI50 (OVCAR-5): 1 µM (active)
GI50 (SF-295): 1.87 µM (inactive)
GI50 (SNB-75): 1.71 µM (inactive)
GI50 (T47D): 1.99 µM (inactive)
GI50 (TK-10): 8.85 µM (inactive)
GI50 (UACC-257): 2.11 µM (inactive)

C[N+]1(CCCl)CC[N+](C)(CCCl)CC1 (stereo unspecified)
GI50 (786-0): > 100 µM (inactive)
GI50 (A498): > 100 µM (inactive)
GI50 (ACHN): > 100 µM (inactive)
GI50 (BT-549): > 100 µM (inactive)
GI50 (HT-29): > 100 µM (inactive)
GI50 (K562): > 100 µM (inactive)
GI50 (LOX IMVI): > 100 µM (inactive)
GI50 (MCF7): > 100 µM (inactive)
GI50 (MDA-MB-435): > 100 µM (inactive)
GI50 (MDA-N): > 100 µM (inactive)
GI50 (NCI-H23): > 100 µM (inactive)
GI50 (NCI-H460): > 100 µM (inactive)
GI50 (OVCAR-5): > 100 µM (inactive)
GI50 (SF-295): > 100 µM (inactive)
GI50 (SK-MEL-2): > 100 µM (inactive)
GI50 (SNB-75): 42.1 µM (inactive)
GI50 (T47D): > 100 µM (inactive)
GI50 (TK-10): > 100 µM (inactive)
GI50 (UACC-257): > 100 µM (inactive)

CSCCC(NC(=O)Cc1ccc(C(=O)c2ccccc2)cc1)C(=O)O (stereo unspecified)
GI50 (786-0): > 100 µM (inactive)
GI50 (A498): > 100 µM (inactive)
GI50 (ACHN): > 100 µM (inactive)
GI50 (BT-549): > 100 µM (inactive)
GI50 (HT-29): > 100 µM (inactive)
GI50 (K562): > 100 µM (inactive)
GI50 (LOX IMVI): > 100 µM (inactive)
GI50 (MCF7): > 100 µM (inactive)
GI50 (MDA-MB-435): > 100 µM (inactive)
GI50 (MDA-N): > 100 µM (inactive)
GI50 (NCI-H23): > 100 µM (inactive)
GI50 (NCI-H460): > 100 µM (inactive)
GI50 (OVCAR-5): > 100 µM (inactive)
GI50 (SF-295): > 100 µM (inactive)
GI50 (SK-MEL-2): > 100 µM (inactive)
GI50 (SNB-75): > 100 µM (inactive)
GI50 (T47D): > 100 µM (inactive)
GI50 (TK-10): > 100 µM (inactive)
GI50 (UACC-257): > 100 µM (inactive)
